From patent US20240368177A1, “5-AMINO-6,8-DIHYDRO-1H-FURO[3,4-d]PYRROLO[3,2-b]PYRIDINE-2-CARBOXAMIDE DERIVATIVES AS MTA-COOPERATIVE INHIBITORS OF PRMT5” (BeiGene Switzerland GmbH, priority 2023, published 2024)

Legend:
HCT116-MTAP-KO = assay: Cell killing in HCT116 isogenic pair (Cell Titer-Glo viability), MTAP knock-out cells; type: cell-based, human; details: 6 days incubation, 0-10 μM, * = more than 50% viability inhibition at tested concentration without a full curve
Method in brief: (§1)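 HCT116 MTAP-knockout or mock-knockout (MTAP wildtype) cells in RPMI 1640 with 10% FBS were seeded overnight, then exposed to test compound at 0–10 μM final for 6 days at 37° C. Viability was measured by CellTiter-Glo luminescence and IC50 was fitted.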

HCT116-mock-RNA-KO = assay: Cell killing in HCT116 isogenic pair (Cell Titer-Glo viability), mock knock-out cells with MTAP wildtype genotype; type: cell-based, human; details: 6 days incubation, 0-10 μM
Method in brief: as §1

| Compound | IC50 (HCT116-MTAP-KO; Homo sapiens, HCT-116, 144 h) | IC50 (HCT116-mock-RNA-KO; Homo sapiens, HCT-116, 144 h) | IC50 (HCT116-MTAP-KO) | IC50 (HCT116-mock-RNA-KO) |
| --- | --- | --- | --- | --- |
| CCN(C(=O)c1cc2nc(N)c3c(c2[nH]1)COC3)[C@@H]1COC2(CC2)c2cc(C(F)(F)F)ccc21 [Example 161, (S)-5-amino-N-ethyl-N-(7′-(trifluoromethyl)spiro[cyclopropane-1,1′-isochroman]-4′-yl)-6,8-dihydro-1H-furo[3,4-d]pyrrolo[3,2-b]pyridine-2-carboxamide] | 39 nM | 2800 nM |  |  |
| CN(C(=O)c1cc2nc(N)c3c(c2[nH]1)COC3)[C@@H]1CCOc2cc(C(F)(F)F)ccc21 [Example 162, (R)-5-amino-N-methyl-N-(7-(trifluoromethyl)chroman-4-yl)-6,8-dihydro-1H-furo[3,4-d]pyrrolo[3,2-b]pyridine-2-carboxamide] | 186 nM | > 10000 nM |  |  |
| CN(C(=O)c1cc2nc(N)c3c(c2[nH]1)COC3)[C@H]1COCc2cc(C(F)(F)F)cnc21 [Example 163, (R)-5-amino-N-methyl-N-(3-(trifluoromethyl)-7,8-dihydro-5H-pyrano[4,3-b]pyridin-8-yl)-6,8-dihydro-1H-furo[3,4-d]pyrrolo[3,2-b]pyridine-2-carboxamide] | > 10000 nM | > 10000 nM |  |  |
| CN(C(=O)c1cc2nc(N)c3c(c2[nH]1)COC3)[C@@H]1COCc2cc(C(F)(F)F)cnc21 [Example 164, (S)-5-amino-N-methyl-N-(3-(trifluoromethyl)-7,8-dihydro-5H-pyrano[4,3-b]pyridin-8-yl)-6,8-dihydro-1H-furo[3,4-d]pyrrolo[3,2-b]pyridine-2-carboxamide] | 145 nM | > 10000 nM |  |  |
| C[C@H]1OCc2c1c(N)nc1cc(C(=O)N(C)[C@@H]3COC4(CC4)c4cc(C(F)(F)F)ccc43)[nH]c21 [Example 165, (R)-5-amino-N,6-dimethyl-N—((S)-7′-(trifluoromethyl)spiro[cyclopropane-1,1′-isochroman]-4′-yl)-6,8-dihydro-1H-furo[3,4-d]pyrrolo[3,2-b]pyridine-2-carboxamide] | 17 nM | 2570 nM |  |  |
| CCN(C(=O)c1cc2nc(N)c3c(c2[nH]1)CO[C@@H]3C)[C@@H]1COC2(CC2)c2cc(C(F)(F)F)ccc21 [Example 166, (R)-5-amino-N-ethyl-6-methyl-N—((S)-7′-(trifluoromethyl)spiro[cyclopropane-1,1′-isochroman]-4′-yl)-6,8-dihydro-1H-furo[3,4-d]pyrrolo[3,2-b]pyridine-2-carboxamide] | 19 nM | 2150 nM |  |  |
| CN(C(=O)c1cc2nc(N)c3c(c2[nH]1)COC3)[C@H]1COC2(CC2)c2cc(C(F)(F)F)cc(F)c21 [Example 167, (R)-5-amino-N-(5′-fluoro-7′-(trifluoromethyl)spiro[cyclopropane-1,1′-isochroman]-4′-yl)-N-methyl-6,8-dihydro-1H-furo[3,4-d]pyrrolo[3,2-b]pyridine-2-carboxamide] | 697 nM | 3320 nM |  |  |
| CN(C(=O)c1cc2nc(N)c3c(c2[nH]1)COC3)[C@@H]1COC2(CC2)c2cc(C(F)(F)F)cc(F)c21 [Example 168, (S)-5-amino-N-(5′-fluoro-7′-(trifluoromethyl)spiro[cyclopropane-1,1′-isochroman]-4′-yl)-N-methyl-6,8-dihydro-1H-furo[3,4-d]pyrrolo[3,2-b]pyridine-2-carboxamide] | 8.4 nM | 2110 nM |  |  |
| C[C@H]1OCc2c1c(N)nc1cc(C(=O)N(C)[C@H]3COC4(CC4)c4cc(C(F)(F)F)cc(F)c43)[nH]c21 [Example 169, (R)-5-amino-N—((R)-5′-fluoro-7′-(trifluoromethyl)spiro[cyclopropane-1,1′-isochroman]-4′-yl)-N,6-dimethyl-6,8-dihydro-1H-furo[3,4-d]pyrrolo[3,2-b]pyridine-2-carboxamide] | 565 nM | 2110 nM |  |  |
| C[C@H]1OCc2c1c(N)nc1cc(C(=O)N(C)[C@@H]3COC4(CC4)c4cc(C(F)(F)F)cc(F)c43)[nH]c21 [Example 170, (R)-5-amino-N—((S)-5′-fluoro-7-(trifluoromethyl)spiro[cyclopropane-1,1′-isochroman]-4′-yl)-N,6-dimethyl-6,8-dihydro-1H-furo[3,4-d]pyrrolo[3,2-b]pyridine-2-carboxamide] |  |  | 4.4 nM | 1010 nM |
| C[C@H]1OCc2c1c(N)nc1cc(C(=O)N(C)[C@@H]3COC4(CC4)c4cc(C5CC5)ccc43)[nH]c21 [Example 171, (R)-5-amino-N—((S)-7′-cyclopropylspiro[cyclopropane-1,1′-isochroman]-4′-yl)-N,6-dimethyl-6,8-dihydro-1H-furo[3,4-d]pyrrolo[3,2-b]pyridine-2-carboxamide] | 39 nM | 3030 nM |  |  |
| CN(C(=O)c1cc2nc(N)c3c(c2[nH]1)COC3)[C@@H]1COC2(CC2)c2cc(C3CC3)ccc21 [Example 172, (S)-5-amino-N-(7′-cyclopropylspiro[cyclopropane-1,1′-isochroman]-4′-yl)-N-methyl-6,8-dihydro-1H-furo[3,4-d]pyrrolo[3,2-b]pyridine-2-carboxamide] | 33 nM | 5050 nM |  |  |
| C[C@H](c1ccc(C2CC2)cc1F)N(C)C(=O)c1cc2nc(N)c3c(c2[nH]1)COC3 [Example 173, (R)-5-amino-N-(1-(4-cyclopropyl-2-fluorophenyl)ethyl)-N-methyl-6,8-dihydro-1H-furo[3,4-d]pyrrolo[3,2-b]pyridine-2-carboxamide] | 67 nM | 5920 nM |  |  |
| C[C@@H](c1ccc(C2CC2)cc1F)N(C)C(=O)c1cc2nc(N)c3c(c2[nH]1)COC3 [Example 174, (S)-5-amino-N-(1-(4-cyclopropyl-2-fluorophenyl)ethyl)-N-methyl-6,8-dihydro-1H-furo[3,4-d]pyrrolo[3,2-b]pyridine-2-carboxamide] | 478 nM | 6070 nM |  |  |
| CCN(C(=O)c1cc2nc(N)c3c(c2[nH]1)CO[C@@H]3C)[C@H](C)c1ccc(C2CC2)cc1F [Example 175, (R)-5-amino-N—((R)-1-(4-cyclopropyl-2-fluorophenyl)ethyl)-N-ethyl-6-methyl-6,8-dihydro-1H-furo[3,4-d]pyrrolo[3,2-b]pyridine-2-carboxamide] | 14 nM | 704 nM |  |  |
| CCN(C(=O)c1cc2nc(N)c3c(c2[nH]1)CO[C@@H]3C)[C@@H](C)c1ccc(C2CC2)cc1F [Example 176, (R)-5-amino-N—((S)-1-(4-cyclopropyl-2-fluorophenyl)ethyl)-N-ethyl-6-methyl-6,8-dihydro-1H-furo[3,4-d]pyrrolo[3,2-b]pyridine-2-carboxamide] | 452 nM | 1780 nM |  |  |
| CCN(C(=O)c1cc2nc(N)c3c(c2[nH]1)COC3)[C@H](C)c1ccc(C2CC2)cc1F [Example 177, (R)-5-amino-N-(1-(4-cyclopropyl-2-fluorophenyl)ethyl)-N-ethyl-6,8-dihydro-1H-furo[3,4-d]pyrrolo[3,2-b]pyridine-2-carboxamide] | 74 nM | 2690 nM |  |  |
| CCN(C(=O)c1cc2nc(N)c3c(c2[nH]1)COC3)[C@@H](C)c1ccc(C2CC2)cc1F [Example 178, (S)-5-amino-N-(1-(4-cyclopropyl-2-fluorophenyl)ethyl)-N-ethyl-6,8-dihydro-1H-furo[3,4-d]pyrrolo[3,2-b]pyridine-2-carboxamide] | 1040 nM | 3270 nM |  |  |
| CN(C(=O)c1cc2nc(N)c3c(c2[nH]1)COC3)[C@@H]1COC2(CC2)c2cc(Br)ccc21 [Example 179, (S)-5-amino-N-(7′-bromospiro[cyclopropane-1,1′-isochroman]-4′-yl)-N-methyl-6,8-dihydro-1H-furo[3,4-d]pyrrolo[3,2-b]pyridine-2-carboxamide] | 24 nM | 4390 nM |  |  |
| C[C@H]1OCc2c1c(N)nc1cc(C(=O)N(C)[C@@H]3COC4(CC4)c4cc(Br)ccc43)[nH]c21 [Example 180, (R)-5-amino-N—((S)-7′-bromospiro[cyclopropane-1,1′-isochroman]-4′-yl)-N,6-dimethyl-6,8-dihydro-1H-furo[3,4-d]pyrrolo[3,2-b]pyridine-2-carboxamide] | 20 nM | 3570 nM |  |  |
| CN1CC[C@@H](N(C)C(=O)c2cc3nc(N)c4c(c3[nH]2)COC4)c2ccc(C(F)(F)F)cc21 [Example 181, (R)-5-amino-N-methyl-N-(1-methyl-7-(trifluoromethyl)-1,2,3,4-tetrahydroquinolin-4-yl)-6,8-dihydro-1H-furo[3,4-d]pyrrolo[3,2-b]pyridine-2-carboxamide] | 15 nM | 1800 nM |  |  |
